Assay results from US4388234A, “Peptide isolation” (Hoffmann-La Roche Inc., priority 1981, dated 1983).

System: Candida albicans ATCC 10231
Assay: protective activity against opportunistic infections in immunosuppressed (5-FU pretreated) mice
Assay type: in vivo
Settings: for Survivors at Day 15 / Survivors at Day 8: daily for eight days with 5-FU 25 mg/kg/day i.p., female ddY mice; for Survivors at Day 15: survivors/total 15 days after infection; for Survivors at Day 8: survivors/total eight days after infection
Protocol: The mice were then infected with Candida albicans ATCC 10231 (1×10^5cells or more) at 24 hours after the last treatment. One control group was administered 5-FU and saline solution and a second control group received neither 5-FU nor a thymic polypeptide prior to infection with Candida albicans.

Thymosin β4: peptide containing 44 amino acid residues, isolated from calf thymus; contained in APF
protective effects against infection (compared with the polypeptides of Thymosin Fraction 5, thymosin α1 and thymosin β8, 5-FU immunosuppressed mice): of comparable similar magnitude
Survivors at Day 15 (dose 0.4 μg/kg/day): 6/10
Survivors at Day 8 (dose 0.4 μg/kg/day): 7/10
Survivors at Day 15 (dose 4 μg/kg/day): 5/10
Survivors at Day 8 (dose 4 μg/kg/day): 5/10
Survivors at Day 15 (dose 40 μg/kg/day): 1/10
Survivors at Day 8 (dose 40 μg/kg/day): 1/10
